Article PMC4929710, “Specificity and mechanism of action of alpha-helical membrane-active peptides interacting with model and biological membranes by single-molecule force spectroscopy” (Scientific Reports, 2016)

Experiments:
[1] = tested on: PC/PG (7:3 w/w) LUVs; experiment: Tryptophan fluorescence with LUVs; assay type: binding; settings: PC/PG (7:3 w/w) LUVs versus HEPES buffer, 25 °C
Description: (§1) In order to investigate the interaction between peptides and difference types of cell membranes, three different LUVs were used to mimic a prokaryotic cell membrane (PC/PG), a normal eukaryotic cell membrane (PC/Chol), and a cancer cell membrane (PC/SM/PE/PS/Chol). Tryptophan residue in the peptide sequence was used as a fluorescent probe to examine the interaction of peptides with model membranes. […] For example, in the PC/PG (7:3 w/w) anionic prokaryotic mimicking model membrane, peptides V13L and A12L/A20L had the strongest hydrophobicity with blue shift values of approximately 37 nm and 38 nm, respectively. Conversely, peptide V13E with a negative charge of glutamic acid residue, and peptide L6A/L17A with the lowest hydrophobicity had blue shift values of approximately 18 nm and 17 nm, respectively. […] In addition, within PC/SM/PE/PS/Chol (4.35:4.35:1:0.3:1 w/w) as a cancer-mimicking model membrane, the same results could be obtained in that peptide hydrophobicity correlates with anticancer activity and the blue shift values of peptides.
(§2) In accordance with previously described methods, LUVs were prepared with PC/PG (7:3 w/w), PC/Chol (8:1 w/w), and PC/SM/PE/PS/Chol (4.35:4.35:1:0.3:1 w/w) to mimic prokaryotic cell, […], membranes, respectively. Lipids using the freeze-thaw method as described previously, followed by extrusion through […] double-stacked nuclepore filters using an Mini-Extruder (Avanti Polar Lipids, Inc.)[11][27].
(§3) Three kinds of LUVs were prepared and cultured in HEPES buffer (pH 7.4, 10 mM HEPES, 150 mM NaCl) and the molar concentration was adjusted to 100 μM. A total of 14 μL of 100 μM MAPs was mixed with 686 μL of 100 μM liposomes at 25 °C for 10 min. A Shimadzu RF-5301PC, (excitation wavelength of […], emission wavelength of 300–450 nm) was used to measure the tryptophan fluorescence. Potassium iodide (KI) as a quencher was added to the previous reaction system for a final concentration of 0.02–0.08 M, respectively. The experimental data were plotted according to the Stern–Volmer equation F0/F = 1 + Ksv[Q], where F0 and F are the fluorescence intensity in the absence or presence of a quencher at concentration [Q], respectively, and Ksv is the Stern–Volmer quenching constant.

[2] = tested on: PC/Chol (8:1 w/w) LUVs; experiment: Tryptophan fluorescence with LUVs; assay type: binding; settings: PC/Chol (8:1 w/w) LUVs versus HEPES buffer, 25 °C
Description: as §1, §2, §3

[3] = Circular dichroism (CD) analysis; assay type: physicochemical; settings: for α-Helix (%) 50% TFE / α-Helix (%) Benign: relative to molar ellipticity of A12L/A20L in 50% TFE; for [θ]222 Benign / [θ]222 50% TFE: CD, 25 °C; for [θ]222 Benign: benign buffer pH 7.0, 100 mM KCl, 50 mM KH2PO4/K2HPO4; for [θ]222 50% TFE: benign buffer:TFE 1:1 vol/vol; for α-Helix (%) Benign: benign buffer
Procedure: The secondary structures of the peptides were determined using a Jasco J-810 CD spectrometer (Jasco, Easton, MD) at 25 °C [12]. The benign buffer (pH 7.0, 100 mM KCl, 50 mM KH2PO4/K2HPO4) was used to simulate the hydrophilic environment and 50% 2,2,2-trifluoroethanol (TFE) (benign buffer: TFE = 1: 1, vol/vol) was used to simulate the hydrophobic environment. The mean residue molar ellipticities at 222 nm, [θ]222 (degree·cm^2·dmol^−1), were used to calculate the relative helical contents of MAPs[24].
CD spectroscopy illustrated the secondary structure of peptide analogs under benign environment and 50% TFE to mimic the hydrophobic conditions of cell membranes. CD results are shown in Supplementary Table S2 and Fig. S1. […] The helical content (%) of peptides in two groups relative to the molar ellipticity value of the peptide A12L/A20L in 50% TFE. In addition, except the peptide of V13E, the relative helicity of the peptides are in the same order of V13L>V13A>V13S>V13K and A12L/A20L>A20L>L6A>L6A/L17A in the benign and hydrophobic environments and also in the same order with the peptide hydrophobicity.

[4] = tested on: 3T3-L1 cells; assay type: cell-based, mouse; settings: 24 h
Procedure: (§4) The MTT cell proliferation assay was used to investigate the anticancer activity and cytotoxicity of MAPs against cancer cell lines (HeLa, A549, SGC-7901, and B16) and normal cells (3T3-L1), respectively. Cells (5 × 10^3) were seeded in 96-well plates and incubated overnight. The peptide samples were then added to cells with final concentrations ranging from 1 μM to 125 μM. After 24 h, 20 μL of 5 mg/mL MTT solution in PBS was added to the cells and treated for 4 h at 37 °C. The formazan crystals were dissolved by 150 μL of dimethyl sulfoxide (DMSO). Finally, the absorbance was determined at 492 nm. The results were expressed as IC50, representing the concentration at which cell viability was reduced by 50%. All assays were repeated in triplicate.

[5] = tested on: B16 cells; assay type: cell-based, mouse; settings: 24 h
Procedure: as §4

[6] = RP-HPLC retention time (peptide hydrophobicity); assay type: physicochemical; settings: used as measure of peptide hydrophobicity
Procedure: All peptides were synthesized by solid-phase peptide synthesis using Fmoc (9-fluorenyl-methoxycar-bonyl) chemistry and rink amide 4-methylbenzhydrylamine resin (MBHA resin; 0.8 mmol/g), as described previously. The crude peptides were purified on a LC-6A preparative reversed-phase high performance liquid chromatography (RP-HPLC, Shimadzu, Kyoto, Japan) using a Zorbax 300 SB-C8 column (250 × 9.4 mm inner diameter, […] particle size, 300 Å pore size), as described previously. The purity of the peptides was characterized by analytical RP-HPLC, mass spectrometry, and amino acid analysis.

[7] = tested on: A549 cells; assay type: cell-based, human; settings: 24 h
Procedure: as §4

[8] = tested on: HeLa cells; assay type: cell-based, human; settings: 24 h
Procedure: as §4

[9] = tested on: SGC7901 cells; assay type: cell-based, human; settings: 24 h
Procedure: as §4

[10] = tested on: gram-negative bacteria (P. aeruginosa and E. coli); assay type: cell-based
Procedure: (§5) Then, 10 μL of peptides was added. […] All assays were repeated in triplicate.

[11] = tested on: E. coli ATCC25922; assay type: cell-based; settings: ATCC25922, 24 h
Procedure: as §5

[12] = tested on: gram-positive bacteria (S. aureus and S. epidermidis); assay type: cell-based
Procedure: as §5

[13] = tested on: S. epidermidis ATCC12228; assay type: cell-based; settings: ATCC12228, 24 h
Procedure: as §5

[14] = tested on: P. aeruginosa ATCC27853; assay type: cell-based; settings: ATCC27853, 24 h
Procedure: as §5

[15] = tested on: S. aureus ATCC25923; assay type: cell-based; settings: ATCC25923, 24 h
Procedure: as §5

[16] = tested on: PC/SM/PE/PS/Chol (4.35:4.35:1:0.3:1 w/w) LUVs; experiment: Tryptophan fluorescence with LUVs; assay type: binding; settings: PC/SM/PE/PS/Chol (4.35:4.35:1:0.3:1 w/w) LUVs versus HEPES buffer, 25 °C
Description: as §1, §2, §3

Substance | PC/PG Blue shift [1] | PC/Chol Blue shift [2] | α-Helix (%) 50% TFE [3] | [θ]222 Benign [3] | [θ]222 50% TFE [3] | α-Helix (%) Benign [3] | IC50 [4] | IC50 [5] | tR (RP-HPLC retention time) [6] | IC50 [7] | IC50 [8] | IC50 [9] | G− MIC GM [10] | G− MIC E. coli ATCC25922 [11] | G+ MIC GM [12] | G+ MIC S. epidermidis ATCC12228 [13] | G− MIC P. aeruginosa ATCC27853 [14] | G+ MIC S. aureus ATCC25923 [15] | PC/SM/PE/PS/Chol Blueshift [16]
Ac-KWKSFLKTFKSASKTVLHTALKAISS-NH2 [Peptide V13S] | 27 nm | 3 nm | 71.30% | −4400.44 degree·cm^2·dmol^−1 | −30899.20 degree·cm^2·dmol^−1 | 10.15% | 17 µM | 5.61 µM | 43.038 min | 12.1 µM | 12.2 µM | 4.27 µM | 8 µM | 8 µM | 5.66 µM | 4 µM | 8 µM | 8 µM | 
Ac-KWKSFAKTFKSAKKTVLHTALKAISS-NH2 [Peptide L6A] | 19 nm | 1 nm | 70.67% | −3836.18 degree·cm^2·dmol^−1 | −30626.20 degree·cm^2·dmol^−1 | 8.85% | 87.3 µM | 74.7 µM | 36.053 min | 92.4 µM | 94.7 µM | 78.9 µM | 89.44 µM | 64 µM |  | 64 µM | 125 µM | >125 µM | 23 nm
Ac-KWKSFLKTFKSAAKTVLHTALKAISS-NH2 [Peptide V13A] | 34 nm | 4 nm | 79.68% | −6524.79 degree·cm^2·dmol^−1 | −34527.20 degree·cm^2·dmol^−1 | 15.06% | 6.79 µM | 3.62 µM | 47.337 min | 6.83 µM | 5.52 µM | 2.33 µM | 5.66 µM | 4 µM | 4 µM | 2 µM | 8 µM | 8 µM | 
